Laboratory results published in patent US20120142701A1 (priority 2010, published 2012).

What was measured:
[1] = molecular target: nucleoprotein (Influenza A virus, UniProt P15682); test: cellular immunofluorescence microscopy in infected A549 cells; type: cell-based, influenza A/WSN/33 virus
[2] = system: A/WSN/33 virus; test: multicycle growth assay, viral titres by plaques assay in MDCK cells; type: cell-based, influenza A H1N1 (A/WSN/33); conditions: MDCK cells infected with A/WSN/33 at 0.001 MOI
Method: FIG. 3 is a plot of the antiviral activity of an aggregation-inducing agent nucleozin in multicycle growth assays. Madin-Darby Canine Kidney (MDCK) cells were infected with A/WSN/33 virus at 0.001 MOI in the presence or absence of nucleozin (0.1 or 1 μM). Viral titres were determined by plaques assay at the time indicated.

[3] = system: nucleoprotein; type: biochemical
[4] = molecular target: T1, nucleoproteins (Influenza A virus, UniProt P03466); test: cell-based aggregation assay (immunofluorescence microscopy)
T1 sequence (P03466 whole entry): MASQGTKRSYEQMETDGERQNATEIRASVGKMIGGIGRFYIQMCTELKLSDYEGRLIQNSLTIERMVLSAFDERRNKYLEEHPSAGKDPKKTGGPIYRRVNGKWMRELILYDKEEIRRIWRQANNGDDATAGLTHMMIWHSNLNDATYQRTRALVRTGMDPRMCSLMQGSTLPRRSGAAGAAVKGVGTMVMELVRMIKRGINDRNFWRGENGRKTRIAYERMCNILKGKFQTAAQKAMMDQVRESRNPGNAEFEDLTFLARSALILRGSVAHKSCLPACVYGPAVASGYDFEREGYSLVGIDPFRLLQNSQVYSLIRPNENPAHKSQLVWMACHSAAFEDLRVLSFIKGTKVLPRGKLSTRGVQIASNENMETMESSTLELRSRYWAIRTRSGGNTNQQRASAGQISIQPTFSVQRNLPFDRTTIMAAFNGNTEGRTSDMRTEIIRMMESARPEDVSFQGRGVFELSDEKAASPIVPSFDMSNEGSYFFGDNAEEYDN
From the text: A cell-based method for identifying compounds that promote aggregation includes:
a.) treating cells with one or more test compounds for a period of time;
b.) adding a fixing solution to stop protein translation;
c.) treating the cells with a fluorescent antibody that binds specifically to a protein, glycoprotein, or protein-nucleic acid complex;
d.) determining the presence or absence of aggregation,
wherein if aggregation is present in (d), the test compound is identified as a compound that may promote aggregation.
1. 25 μl of culture medium is added into each well of a 384-well plate followed by the addition of a test compound from a chemical library in each well. Then 25 μl of cells (6×10^3 cells/well) with undesirable physiological conditions in DMEM with 10% fetal bovine serum are seeded into each assay well. Plates are incubated at 37° C. in a 5% CO2 humid atmosphere for 1 day.
2. The supernatant is removed from each well, and washed with 50 μl of phosphate-buffered saline (PBS).
3. The PBS is aspirated off and 50 μl of a cold (4° C.) fixing solution of 3.65% formaldehyde in PBS was added to each well. The plate was incubated for 1 h at 4° C.
4. The fixing solution was aspirated off and 50 μl of 0.1% Nonidet P-40 solution in PBS was added to each well. […]
8. The aggregation of proteins, glycoproteins, or protein-nucleic acid complexes is detected by immunofluorescence microscopy.

[5] = molecular target: T1, nucleoproteins; test: cell-free aggregation assay (aggregation plate reader); type: biochemical
Method: A cell-free method for identifying compounds that promote aggregation of proteins, glycoproteins, or protein-nucleic acid complexes includes:
a.) combining a mixture of bovine serum albumin and one or more proteins, glycoproteins, or protein-nucleic acid complexes;
b.) adding the mixture of (a) to a multi-well plate;
c.) transferring a test compound to one or more wells of the multi-well plate;
d.) incubating the plate of (c); and
e.) determining the presence of aggregation,
wherein if aggregation is present in (e), the test compound is identified as a compound that may promote aggregation.
1. A mixture of 1 μM proteins, glycoproteins, or protein-nucleic acid complexes in 40 μg/ml bovine serum albumin is prepared.
2. A portion (20 μl) of the reaction mixture is added to each well of a 384-well mircotitre plate using automated liquid dispenser.
3. Chemicals from a chemical library are assayed by transferring approximately 100 nl to each assay well by a 384 solid pin array.
4. The plates are incubated at 37° C. for 6 hours and the extent of chemical induced aggregation is recorded by an aggregation plate reader.

[6] = system: A/Vietnam/1194/04 H5N1 virus; type: in vivo, BALB/c female mice

nucleoprotein (Influenza A virus, UniProt P15682), sequence (P15682 whole entry): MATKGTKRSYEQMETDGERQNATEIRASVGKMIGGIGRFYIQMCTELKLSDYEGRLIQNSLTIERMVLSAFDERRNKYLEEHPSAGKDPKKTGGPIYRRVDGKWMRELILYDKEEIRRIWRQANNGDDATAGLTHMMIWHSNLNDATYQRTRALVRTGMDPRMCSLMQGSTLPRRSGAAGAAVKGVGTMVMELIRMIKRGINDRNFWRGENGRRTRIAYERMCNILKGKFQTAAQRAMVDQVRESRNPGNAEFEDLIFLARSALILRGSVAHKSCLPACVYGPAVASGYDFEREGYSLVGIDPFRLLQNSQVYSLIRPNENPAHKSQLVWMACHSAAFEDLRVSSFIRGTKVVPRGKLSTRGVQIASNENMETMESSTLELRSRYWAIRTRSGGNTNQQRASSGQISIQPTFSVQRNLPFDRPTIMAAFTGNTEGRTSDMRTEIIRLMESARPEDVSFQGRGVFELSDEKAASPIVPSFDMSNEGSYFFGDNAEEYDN

nucleozin
nucleoprotein localisation at 3 hours post infection ([1]; influenza A/WSN/33, 3 hours post infection): “halo” of dense nucleoprotein aggregates surrounding the perinuclear region in the cytoplasm
nucleoprotein localisation at 24 hours after infection ([1]; influenza A/WSN/33, 24 hours after infection): nucleoprotein trapped in the cytoplasm was seen scattered randomly in host cells
nucleoprotein accumulation in the nucleus ([1]; influenza A/WSN/33 virus infection): potent antagonist of nucleoprotein accumulation in the nucleus
viral growth (viral titres) ([2]; nucleozin 0.1 μM): suppressed viral growth
virus production (viral titres) ([2]; nucleozin at 1 (unit cut off in the text)): completely inhibited virus production
amount of nucleoprotein running into the native gradient gel [3]: reduces the amount of nucleoprotein running into the native gradient gel in a dose-dependent manner
nucleoprotein-RNA complex that runs into the 4-12% polyacrylamide gradient gel [3]: dose-dependent reduction
aggregation of nucleoproteins [4]: aggregation of nucleoproteins was observed
aggregation of nucleoproteins [5]: aggregation of nucleoproteins was observed
survival rate versus untreated controls ([6]; mice after inoculation by influenza A virus H5N1 strain A/Vietnam/1194/04): significantly higher survival rate
animals surviving for more than 21 days ([6]; mice, two doses of nucleozin (250 nmole per dose) per day i.p. for 5 days, H5N1 A/Vietnam/1194/04 i.n.): 90%
